Tests used:
Format in all cases: in vivo, Cavia porcellus
collagen type I = test: Western Blot of scleral collagen type I after administration in form-deprived eyes; conditions: sclera removed after administration
Description: (§1) The experimental animals used in this experiment were 3-week-old British shorthair three-colored guinea pigs (Cavia porcellus). Mask technique was used as a model of monocular form-deprivation (FD) myopia. In the myopic sclera HIF-1α expression experiment, the animals were randomly divided into three groups: the normal control group, FD 1 week group, and FD 1 week & 2-day recovery group. […] In the administration experiment, HIF-1α inhibitors salidroside and formononetin were administered to the form-deprived eyes by periocular injection to inhibit HIF-1α activity. The animals in the salidroside injection experiment were randomly divided into three groups: form-deprivation+solvent control group (FD+0.9% normal saline (NS)), form-deprivation+low concentration drug group (FD+SDS 1 μg), and form-deprivation+high concentration drug group (FD+SDS 10 μg). […] Before the experiment and after 2 weeks and 4 weeks of administration respectively, the diopter was measured with an eccentric infrared photo-refractor (EIR), and the ocular axis parameters such as vitreous chamber depth and ocular axis length were measured with amplitude-mode ultrasound (11 MHz). After the administration, the sclera was removed and the expression of HIF-1α and collagen type I were detected by Western Blot.

form-deprivation myopia = test: Monocular form-deprivation (FD) myopia model, periocular injection; diopter by eccentric infrared photo-refractor, ocular axis parameters by A-mode ultrasound; conditions: guinea pig FD eyes, daily periocular injection, after 4 weeks
Description: The experimental animals used in this experiment were 3-week-old British shorthair three-colored guinea pigs (Cavia porcellus). Mask technique was used as a model of monocular form-deprivation (FD) myopia. In the myopic sclera HIF-1α expression experiment, the animals were randomly divided into three groups: the normal control group, FD 1 week group, and FD 1 week & 2-day recovery group. […] In the administration experiment, HIF-1α inhibitors salidroside and formononetin were administered to the form-deprived eyes by periocular injection to inhibit HIF-1α activity. The animals in the salidroside injection experiment were randomly divided into three groups: form-deprivation+solvent control group (FD+0.9% normal saline (NS)), form-deprivation+low concentration drug group (FD+SDS 1 μg), and form-deprivation+high concentration drug group (FD+SDS 10 μg). The animals in the formononetin injection experiment were randomly divided into three groups: form-deprivation+solvent control group (FD+DMSO), form-deprivation+low concentration drug group (FD+FMN 0.5 μg), and form-deprivation+high concentration drug group (FD+FMN 5 μg). Periocular injection of drugs was performed daily at 9 am for 4 weeks without treatment of the contralateral eyes. Before the experiment and after 2 weeks and 4 weeks of administration respectively, the diopter was measured with an eccentric infrared photo-refractor (EIR), and the ocular axis parameters such as vitreous chamber depth and ocular axis length were measured with amplitude-mode ultrasound (11 MHz). After the administration, the sclera was removed and the expression of HIF-1α and collagen type I were detected by Western Blot.

[1] = system: scleral hypoxia-inducible factor-1α (HIF-1α); test: Western Blot of scleral HIF-1α after administration in form-deprived eyes; conditions: sclera removed after administration
Description: as §1

## OC[C@H]1O[C@@H](OCCc2ccc(O)cc2)[C@H](O)[C@@H](O)[C@@H]1O [salidroside]
Collagen type I
  down-regulation of collagen (type I) expression in the sclera of FDM eyes: inhibited
form-deprivation myopia
  extension of ocular axis (ocular axis length difference) compared with solvent-injection group: relatively smaller
  extension of vitreous chamber (vitreous chamber depth difference) compared with solvent-injection group: relatively smaller
  myopia formation (diopter difference between experimental eyes and contralateral eyes) compared with form-deprivation solvent-injection group: significantly reduced
[1]
  up-regulation of HIF-1α expression in the sclera of FDM eyes: inhibited
